Measured values as given in patent EP4768480A1, “ALKOXY THIOPHENE ACYL ARYLAMINE COMPOUNDS AND USE THEREOF” (priority 2024, dated 2025).

Columns and labels:
dry eye mice [1] = experiment: Ocular surface sodium fluorescein staining in dry eye mice; format: in vivo, male C57BL/6 experimental mice; settings: for corneal fluorescein sodium staining scores compared to cyclosporine eyedrops: 0.04% compound, comparison with cyclosporine eyedrops; for corneal fluorescein sodium staining scores compared to cyclosporine eyedrops / corneal fluorescein sodium staining scores: 5 µl per eye, twice daily, one week; for corneal fluorescein sodium staining scores: ocular surface, 0.04% compound or commercial cyclosporine eyedrops, versus carrier group; for area of corneal damage (sodium fluorescein staining photograph): compared to the carrier group, Figure 2
Description: (§1) Experimental animals: male C57BL/6 experimental mice aged 6-8 weeks.
(§2) Experimental reagents and consumables: phenol red cotton line, 1% sodium fluorescein solution, ? 0.05% cyclosporin eyedrops (II) from Xingqi Eyedrops Company, 0.
(§3) At the end of 2 weeks, the dry eye mice were randomly divided into four groups, with 7 mice in each group.
(§4) Each eye of every mouse received 5 µl of […] through ocular surface administration, twice daily. Another group of 7 male C57BL/6 experimental mice aged 6-8 weeks was kept in a thermostatic blast drying oven with controlled environmental humidity of 50% and temperature of 25°C, and received an empty carrier as a physiological control in the third week.
(§5) All mice were evaluated for ocular surface damage recovery by ocular surface fluorescein sodium staining scores on the third weekend, and the tear secretion of mice was measured with phenol red surface lines. To be more specific, the phenol red surface line was placed in the conjunctival sac of a mouse in the anesthesia state for 30 seconds, and then the discoloration length of the phenol red surface line was measured. 2 µl of 1% sodium fluorescein solution was then administered through ocular surface, and photographs were taken under a cobalt blue lamp for scoring and statistics.

dry eye mice [2] = experiment: Tear secretion by phenol red cotton thread in dry eye mice; format: in vivo, male C57BL/6 experimental mice; settings: thread 30 seconds in conjunctival sac, compared to the vehicle group, Figure 3
Description: as §1, §2, §3, §4, §5

Aβ = Aβ (Homo sapiens, UniProt P05067); settings: literature value, Deepak et al., 2020; read-out: inhibiting the aggregation of Aβ, EC50; cited from earlier work
SMS2 = target: T1, SMS2 (Homo sapiens, UniProt Q8NHU3); experiment: SMS2 inhibitory activity in vitro, HPLC fluorescence quantitative detection (C6-NBD-ceramide to C6-NBD-SM); format: biochemical; settings: SMS2 pure enzyme, 37°C, 30 minutes, average of two measurements; for inhibition at 10 µM: 10 µM test compound, read-out: Inhibition rate on SMS2 at C/µM 10; for inhibition at 1 µM: 1 µM test compound, read-out: Inhibition rate on SMS2 at C/µM 1
T1 construct: CAO, Yu research team, National Protein Scientific Center (Shanghai); supplied by an outside laboratory, not a commercial vendor
T1 sequence (Q8NHU3 1-365): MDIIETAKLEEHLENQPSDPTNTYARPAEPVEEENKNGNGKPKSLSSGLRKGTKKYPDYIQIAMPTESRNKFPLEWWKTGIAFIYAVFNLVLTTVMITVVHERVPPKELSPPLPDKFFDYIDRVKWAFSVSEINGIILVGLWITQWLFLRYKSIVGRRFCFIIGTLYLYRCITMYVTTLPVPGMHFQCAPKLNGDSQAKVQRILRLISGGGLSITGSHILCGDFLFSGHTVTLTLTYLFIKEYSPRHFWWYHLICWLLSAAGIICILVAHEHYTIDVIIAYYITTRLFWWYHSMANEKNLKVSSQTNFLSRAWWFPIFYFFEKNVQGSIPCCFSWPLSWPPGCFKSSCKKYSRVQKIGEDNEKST
Text: • 1. Electro-thermostatic water bath, from Shanghai Yiheng Technology Co., Ltd.); • 2. Vortex Mixer, with model ID of XW-80A, from Shanghai Jingke Industrial Co., Ltd.; • 3. […] High Performance Liquid Chromatography Agilent 1100, equipped with a quaternary pump, vacuum degassing, and FLD fluorescence detector, from Agilent Technologies, Palo Alto, CA, USA; • 5. HPLC column COSMOSIL 5C18-MS-II (4.6mm I.D. X 250mm); • 6. […] The organic solvents used in the present disclosure were purchased from Shanghai National Reagent Company, wherein methanol was pure chromatography; water was ultra-pure water which is filtrated by Milli-Q pump, deionized and ultra-filtrated with 0.22 µm membrane; and other biological consumables were purchased from domestic companies; • 8. Preparation of test compound solutions: each test compound was accurately weighed and dissolved in an appropriate volume of DMSO to prepare a 10 mmol/L stock solution. The stock solution was then diluted with an appropriate volume of DMSO to achieve the desired working concentration; • 9. SMS2 pure enzyme, DDM solution and buffer solution were provided by CAO, Yu research team from National Protein Scientific Center (Shanghai).
79 µl of the diluted enzyme solution were transferred into a 1.5 mL EP tube, 1 µl of inhibitor DMSO solution were added thereto, vortexing for 15 seconds, followed by standing at room temperature for 5 minutes. 20 µl of a mixed solution of DMPC and C6-NBD-ceramide were added, vortexing for 15 seconds, and incubated at 37°C for 30 minutes. 200 µl of anhydrous ethanol were added to quench the reaction, vortexing for 15 seconds. 200 µl of the reaction solution were taken out and stored at 4°C and avoided light for HPLC detection.
The peak area values of A(sm) and A(ceramide) in the HPLC chromatogram corresponding to C6-NBD-SM and C6-NBD-Ceramide in the DMSO group and inhibitor group samples were analyzed and recorded, and the inhibition rate of the test compound was calculated according to the following formula. Inhibition rate = (Peak area values of DMSO group−Peak area values of Inhibitor group)/(Peak area values of DMSO group) × 100% [formula]

Chain of Aβ (P05067 672-713 limits assumed): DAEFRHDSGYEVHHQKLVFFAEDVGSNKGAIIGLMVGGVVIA

Row | inhibition at 10 µM (SMS2) | inhibition at 1 µM (SMS2) | SMILES | further results
1 | – | – | O=C(Nc1cccnc1)c1sccc1OCc1cc(F)ccc1Cl [1-2, 3-(2-chloro-5-fluorobenzyloxy)-N-(pyridin-3-yl)thiophene-2-carboxamide] | corneal fluorescein sodium staining scores compared to cyclosporine eyedrops (dry eye mice [1]): statistically significant advantages; corneal fluorescein sodium staining scores (dry eye mice [1]): reduction in corneal fluorescein sodium staining scores; area of corneal damage (sodium fluorescein staining photograph) (dry eye mice [1]): can reduce the area of corneal damage; tear secretion (discoloration length of phenol red cotton thread) (dry eye mice [2]): exhibited an increasing trend compared to the vehicle group
2 | – | – | CCCCCCCCOc1ccccc1COc1ccsc1C(=O)Nc1cccnc1 [1-31, 3-(2-(octyloxy)benzyloxy)-N-(pyridin-3-yl)thiophene-2-carboxamide] | corneal fluorescein sodium staining scores compared to cyclosporine eyedrops (dry eye mice [1]): statistically significant advantages; corneal fluorescein sodium staining scores (dry eye mice [1]): reduction in corneal fluorescein sodium staining scores; area of corneal damage (sodium fluorescein staining photograph) (dry eye mice [1]): can reduce the area of corneal damage; tear secretion (discoloration length of phenol red cotton thread) (dry eye mice [2]): exhibited an increasing trend compared to the vehicle group
3 | – | – | CC(C)=CCC/C(C)=C/CC[C@@]1(C)C=Cc2c(cc(C)c(C(=O)O)c2O)O1 [Daurichromonic acid] | EC50 (Aβ): 57 µM
4 | 16% | – | O=C(Nc1cccnc1)c1ncccc1OCc1ccccc1 [12-15, 3-benzyloxy-N-(pyridin-3-yl)pyridin-2-carboxamide] | –
5 | 81% | – | COC(=O)c1ccccc1COc1ccsc1C(=O)Nc1cccnc1 [1-22, 2-[(2-(pyridin-3-ylcarbamoyl)thiophene-3-yl)oxymethyl]methyl benzoate] | –
6 | 50% | – | Cc1cncc(NC(=O)c2sccc2OCc2ccccc2)c1 [1-83, 3-benzyloxy-N-(5-methylpyridin-3-yl)thiophene-2-carboxamide] | –
7 | – | 50% | COc1ccc(OC)c(COc2ccsc2C(=O)Nc2cccnc2)c1 [1-98, 3-(2,5-dimethoxybenzyloxy)-N-(pyridin-3-yl)thiophene-2-carboxamide] | –
8 | 62% | – | O=C(Nc1cccnc1)c1sccc1OCC12CC3CC(CC(C3)C1)C2 [1-99, 3-(adamantan-1-ylmethoxy)-N-(pyridin-3-yl)thiophene-2-carboxamide] | –
9 | – | 47% | O=C(Nc1cc(C(F)(F)F)ccn1)c1sccc1OCc1ccccc1 [1-5, 3-benzyloxy-N-(4-(trifluoromethyl)pyridin-2-yl)thiophene-2-carboxamide] | –
10 | 50% | – | O=C(Nc1cc(Cl)ccn1)c1sccc1OCc1ccccc1 [1-6, 3-benzyloxy-N-(4-chloropyridin-2-yl)thiophene-2-carboxamide] | –
11 | 50% | – | CCCCOc1ccsc1C(=O)Nc1cccnc1 [1-95] | –
12 | – | 90% | CCCCCCOc1ccc(Cl)cc1COc1ccsc1C(=O)Nc1cccnc1 [1-73, 3-(5-chloro-2-(hexyloxy)benzyloxy)-N-(pyridin-3-yl)thiophene-2-carboxamide] | –
13 | 77% | – | O=C(Nc1cccnc1)c1sccc1OCc1cccc2c1Oc1c(F)c(F)c(F)c(F)c1O2 [1-19, N-(pyridin-3-yl)-3-[(6,7,8,9-tetrafluorodibenzo[b,e][1,4]dioxin-1-yl)methoxy]thiophene-2-carboxamide] | –
14 | – | 73% | O=C(Nc1cccnc1)c1sccc1OCc1ccccc1OC(F)F [1-85, 3-(2-difluoro-methoxybenzyloxy)-N-(pyridin-3-yl)thiophene-2-carboxamide] | –
15 | – | 67% | O=C(Nc1cccnc1)c1sccc1OCc1c(F)c(F)cc(F)c1F [1-67, 3-(2,3,5,6-tetrafluorobenzyloxy)-N-(pyridin-3-yl)thiophene-2-carboxamide] | –
16 | 50% | – | Cc1ccc(COc2ccsc2C(=O)Nc2cccnc2)cc1 [1-42, 3-(4-methylbenzyloxy)-N-(pyridin-3-yl)thiophene-2-carboxamide] | –
17 | 63% | – | O=C(Nc1cccnn1)c1sccc1OCc1ccccc1 [1-4, 3-benzyloxy-N-(pyridazin-3-yl)thiophene-2-carboxamide] | –
18 | 65% | – | Cc1ccncc1NC(=O)c1sccc1OCc1ccccc1 [1-69, 3-benzyloxy-N-(4-methylpyridin-3-yl)thiophene-2-carboxamide] | –
19 | 50% | – | N#Cc1ccc(COc2ccsc2C(=O)Nc2cccnc2)cc1 [1-52, 3-(4-cyanobenzyloxy)-N-(pyridin-3-yl)thiophene-2-carboxamide] | –
20 | 53% | – | O=C(Nc1cccnc1)c1scc(Br)c1OCc1ccccc1 [1-15, 3-benzyloxy-4-bromo-N-(pyridin-3-yl)thiophene-2-carboxamide] | –
21 | – | 90% | CCCCCCCOc1cc(Cl)ccc1COc1ccsc1C(=O)Nc1cccnc1 [1-72, 3-(4-chloro-2-(heptyloxy)benzyloxy)-N-(pyridin-3-yl)thiophene-2-carboxamide] | –
22 | – | 9% | O=C(Nc1ccc(F)nc1)c1sccc1OCc1ccccc1 [12-13] | –
